Legend:
ERK1/2 phosphorylation = experiment: Western blotting of PGE2-induced ERK1/2 phosphorylation; format: cell-based; conditions: pre-incubation 20 min, then 30 nM PGE2 for 5 min; dose-dependent
human EP1 = target: T1, human EP1 (Homo sapiens, UniProt P34995); experiment: Calcium flux assay, human EP1; format: cell-based; conditions: CHO-Gα16 cells, PGE2 (EC80)
T1 construct: expressed in transfected cells; host or cells: CHO-Gα16
T1 sequence (P34995 1-402): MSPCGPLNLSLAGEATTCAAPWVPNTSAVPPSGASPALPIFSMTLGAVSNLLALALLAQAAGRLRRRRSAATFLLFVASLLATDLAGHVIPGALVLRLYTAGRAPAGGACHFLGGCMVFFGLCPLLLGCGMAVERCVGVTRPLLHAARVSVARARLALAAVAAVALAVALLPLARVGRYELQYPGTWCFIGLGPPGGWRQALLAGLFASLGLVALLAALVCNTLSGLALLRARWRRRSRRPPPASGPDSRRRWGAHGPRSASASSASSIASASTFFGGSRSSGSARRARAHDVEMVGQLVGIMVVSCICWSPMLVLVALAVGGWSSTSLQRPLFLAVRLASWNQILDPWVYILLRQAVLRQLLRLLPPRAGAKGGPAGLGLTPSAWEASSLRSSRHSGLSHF
Experimental: (§1) Calcium flux assay was conducted as described in our previous study. Briefly, CHO-Gα16 cells were transfected, respectively, with human EP1, human EP2, human EP3, human EP4, monkey EP4, mouse EP4 and rat EP4 overexpression constructs using lipofectamine 2000 according to the manufacturer’s manual. Cells were then seeded into a 96-well black plate with a cell density of 2 × 10^4 cells/100 μL per well for a 16-h culture. On the next day, cells were incubated for 45 min with reagents (100 μL/well) of Calcium-5 Assay Kit (Molecular Devices, San Jose, CA, USA). Then, cells were pre-treated with indicated concentrations of L001 for 15 min and stimulated with PGE2 (EC80). The calcium flux was detected subsequently by a Flexstation® 3 Multi-Mode Microplate Reader (Molecular Devices, San Jose, CA, USA).

human EP3 = target: T2, human EP3 (Homo sapiens, UniProt P43115); experiment: Calcium flux assay, human EP3; format: cell-based; conditions: CHO-Gα16 cells, PGE2 (EC80)
T2 construct: expressed in transfected cells; host or cells: CHO-Gα16
T2 sequence (P43115 1-390): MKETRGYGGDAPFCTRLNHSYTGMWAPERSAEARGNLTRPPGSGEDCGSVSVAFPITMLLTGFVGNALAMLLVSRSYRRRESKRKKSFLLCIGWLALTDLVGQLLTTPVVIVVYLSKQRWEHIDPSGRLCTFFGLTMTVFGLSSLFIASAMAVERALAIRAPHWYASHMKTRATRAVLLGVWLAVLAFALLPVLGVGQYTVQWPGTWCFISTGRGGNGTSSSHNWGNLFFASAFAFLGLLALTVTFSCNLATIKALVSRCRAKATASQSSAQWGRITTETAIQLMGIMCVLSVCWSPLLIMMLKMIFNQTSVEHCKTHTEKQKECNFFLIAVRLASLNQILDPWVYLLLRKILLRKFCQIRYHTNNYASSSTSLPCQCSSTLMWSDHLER
Experimental: as §1

mouse EP4 = target: T3, mouse EP4 (Mus musculus, UniProt P32240); experiment: Calcium flux assay, mouse EP4; format: cell-based
T3 construct: expressed in transfected cells; host or cells: CHO-Gα16
Experimental: as §1

BxPC-3 cells [1] = experiment: Wound healing assay, BxPC-3; format: cell-based, human; conditions: 0.1 μM PGE2, 24 h, dose-dependent
Experimental: The wound healing assay was performed according to a standard protocol as described before. Briefly, Pan02 and BxPC-3 cells were grown as a confluent monolayer in 12-well plates (Corning, Corning, NY, USA) overnight and starved with serum-free medium for 6 h. The monolayer cells were disrupted with a P100 micropipette tip (JET BIOFIL, Guangzhou, China) and rinsed with PBS to remove detached cells. Medium containing different concentrations of compounds was added subsequently. After 24 h, treated cells were stained with 2 μM calcein-AM (Yeasen, Shanghai, China) for 20 min and washed with PBS. Photos were taken of the area in the scraped zone of each dish at 100× magnification by using an inverted fluorescent microscope (OLYMPUS, Tokyo, Japan).

Pan02 cells = experiment: 3D Matrigel tumor spheroid invasion assay, Pan02; format: cell-based, murine; conditions: 0.1 μM PGE2, day 7
Experimental: (§2) The 3D Matrigel invasion assay was performed as described. Pan02 and BxPC-3 cells were plated above a layer of Matrigel (ThermoFisher, Shanghai, China) and covered with growth medium containing 10% Matrigel. The culture medium containing different concentrations of compounds was changed every two days. After 7 days, cells with stellate invasive structure were photographed (OLYMPUS, Tokyo, Japan).

BxPC-3 cells [2] = experiment: 3D Matrigel tumor spheroid invasion assay, BxPC-3; format: cell-based, human; conditions: 0.1 μM PGE2, day 7
Experimental: as §2

BxPC-3 cells [3] = experiment: Cell viability assay (MTS), BxPC-3; format: cell-based, human; conditions: 72 h
Experimental: Cells were seeded into 96-well plates and treated with varied concentrations of compounds for 72 hrs. Cell viabilities were determined by using MTS reagent (Promega, Madison, WI, USA) according to the manufacturer’s manual. Spectrophotometric absorbance at 490 nm was measured by Flexstation® 3 Multi-Mode Microplate Reader (Molecular Devices, San Jose, CA, USA). The experiments were independently repeated three times.

EP4 = EP4 (Homo sapiens, UniProt P35408); experiment: Calcium flux assay, human EP4; format: cell-based; set-up: expressed in transfected cells; host or cells: CHO-Gα16
Experimental: as §1

EP4, sequence (P35408 whole entry): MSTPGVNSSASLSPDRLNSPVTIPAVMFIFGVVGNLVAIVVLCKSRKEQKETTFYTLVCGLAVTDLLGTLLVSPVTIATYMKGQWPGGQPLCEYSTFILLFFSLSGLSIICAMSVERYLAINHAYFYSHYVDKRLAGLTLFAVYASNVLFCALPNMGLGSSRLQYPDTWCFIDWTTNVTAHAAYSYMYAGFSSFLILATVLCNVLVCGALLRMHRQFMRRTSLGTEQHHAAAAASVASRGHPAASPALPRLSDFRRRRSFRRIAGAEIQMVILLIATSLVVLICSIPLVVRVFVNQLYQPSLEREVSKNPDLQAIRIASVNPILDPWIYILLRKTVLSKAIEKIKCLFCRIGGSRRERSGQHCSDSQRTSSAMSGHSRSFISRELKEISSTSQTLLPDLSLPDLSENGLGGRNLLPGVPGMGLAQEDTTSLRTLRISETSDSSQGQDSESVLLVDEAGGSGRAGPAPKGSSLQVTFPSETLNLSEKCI
T3 sequence (P32240 whole entry): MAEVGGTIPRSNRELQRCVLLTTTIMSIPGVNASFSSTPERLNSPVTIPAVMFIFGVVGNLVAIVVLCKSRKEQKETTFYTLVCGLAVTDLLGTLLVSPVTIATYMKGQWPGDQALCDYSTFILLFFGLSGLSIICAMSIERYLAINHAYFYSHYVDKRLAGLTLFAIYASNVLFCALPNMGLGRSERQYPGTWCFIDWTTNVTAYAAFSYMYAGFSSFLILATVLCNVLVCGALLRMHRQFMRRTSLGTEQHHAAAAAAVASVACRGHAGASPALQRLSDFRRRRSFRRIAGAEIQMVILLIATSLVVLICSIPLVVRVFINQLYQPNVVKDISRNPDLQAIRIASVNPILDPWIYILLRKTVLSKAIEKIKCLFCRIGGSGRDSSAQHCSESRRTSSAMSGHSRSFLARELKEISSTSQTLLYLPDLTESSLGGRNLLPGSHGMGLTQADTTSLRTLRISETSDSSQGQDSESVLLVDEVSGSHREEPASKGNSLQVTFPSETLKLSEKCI

C[C@H](NC(=O)c1c(Cc2cccc(C(F)(F)F)c2)sc2c1CCOC2)c1ccc(C(=O)O)cc1 [L001]
PGE2-induced phosphorylation of ERK1/2 (ERK1/2 phosphorylation): significantly blocked
IC50 (human EP1): > 10 µM
IC50 (human EP3): > 10 µM
IC50 (mouse EP4): 3.2 ± 0.28 nM
PGE2-triggered wound closure (BxPC-3 cells [1]): significantly blocked
spheroid invasion morphology (filopodium-like protrusions) (Pan02 cells): completely retracted PGE2-induced membrane surface projections
spheroid invasion morphology (filopodium-like protrusions) (BxPC-3 cells [2]): completely retracted PGE2-induced membrane surface projections
cell viability (BxPC-3 cells [3]): did not affect the cell viabilities
IC50 (EP4): 1.47 ± 0.02 nM
antagonism efficacy on EP4 compared with E7046 (EP4; calcium flux assay): over 5 fold

Source: publication PMC8879074, “A Novel Small Molecular Prostaglandin Receptor EP4 Antagonist, L001, Suppresses Pancreatic Cancer Metastasis” (Molecules, 2022)
